EPA's ToxRefDB 2

Experiments:
[1] = tested on: rat; settings: Multigenerational reproductive toxicity study, wistar, Oral, Feed, dose end: 2 generation
[2] = tested on: mouse; settings: Subchronic oral toxicity in rodents, cd1, Feed, dose end: 13 week, group: systemic
[3] = tested on: rat; settings: Subchronic oral toxicity in rodents, wistar, Feed, dose end: 14 week, group: systemic
[4] = tested on: dog; settings: Chronic toxicity; beagle; Oral; Feed; dose end: 52 week; group: systemic; systemic / organ weight / adrenal gland / relative to body weight + systemic / organ weight / testes / relative to body weight + systemic / …
[5] = tested on: mouse; settings: Carcinogenicity, cd1, Oral, Feed, dose end: 18 month, group: systemic
[6] = tested on: dog; settings: Subchronic oral toxicity in nonrodent, beagle, Feed, dose end: 14 week, group: systemic
[7] = tested on: rat; settings: Subchronic oral toxicity in rodents, wistar, Feed, dose end: 13 week, group: systemic, systemic / clinical chemistry / alanine aminotransferase (alt/sgpt) / alanine aminotransferase (alt/sgpt) + systemic / clinical chemistry / …
[8] = tested on: rat; settings: Combined chronic toxicity/carcinogenicity, wistar, Oral, Feed, dose end: 120 week, group: systemic
[9] = tested on: rat; settings: Subchronic oral toxicity in rodents, sprague dawley, Water, dose end: 90 day, group: systemic
[10] = tested on: mouse; settings: Combined chronic toxicity/carcinogenicity, b6c3f1, Oral, Water, dose end: 52 week, group: systemic
[11] = group: offspring, systemic / in life observation / body weight / offspring (pup) weight + systemic / in life observation / body weight / offspring (pup) …
[12] = group: parental, systemic / organ weight / liver / absolute + systemic / organ weight / liver / relative to body weight
[13] = systemic / pathology microscopic / liver / hypertrophy + systemic / pathology microscopic / testes / hypertrophy
[14] = systemic / pathology microscopic / liver / hypertrophy + systemic / pathology microscopic / testes / hypertrophy + systemic / clinical …
[15] = systemic / clinical chemistry / thyroid stimulating hormone (thyrotropin) (tsh) / thyroid stimulating hormone (=thyrotropin) (tsh)
[16] = systemic / organ weight / adrenal gland / nos + systemic / organ weight / kidney / absolute + systemic / organ weight / kidney / relative to…
[17] = systemic / pathology microscopic / adrenal gland / pigmentation
[18] = systemic / clinical chemistry / alderin epoxidase / alderin epoxidase + systemic / clinical chemistry / ethoxycoumarin deethylase / …
[19] = systemic / organ weight / adrenal gland / relative to body weight + systemic / pathology microscopic / adrenal gland / vacuolization …
[20] = systemic / clinical chemistry / alanine aminotransferase (alt/sgpt) / alanine aminotransferase (alt/sgpt) + systemic / clinical chemistry / …
[21] = systemic / pathology microscopic / liver / basophilic focus
[22] = systemic / in life observation / water consumption / water consumption + systemic / organ weight / kidney / relative to body weight + …
[23] = systemic / organ weight / spleen / absolute + systemic / pathology microscopic / liver / hypertrophy
[24] = systemic / organ weight / liver / absolute + systemic / organ weight / liver / relative to body weight + systemic / pathology microscopic / …
[25] = systemic / pathology microscopic / liver / adenoma + systemic / pathology microscopic / liver / hepatocellular carcinoma + systemic / organ …

CCC(C)(C)C(=O)OC1=C(c2ccc(Cl)cc2Cl)C(=O)OC12CCCCC2 [Spirodiclofen]
LEL [1, 11]: 30.2 mg/kg/day
LOAEL [1, 11]: 30.2 mg/kg/day
NEL [1, 11]: 6.4 mg/kg/day
NOAEL [1, 11]: 6.4 mg/kg/day
LOAEL ([1]; group: parental, systemic / in life observation / body weight / body weight + systemic / organ weight / liver / absolute): 26.2 mg/kg/day
NOAEL ([1]; group: parental, systemic / in life observation / body weight / body weight + systemic / organ weight / liver / absolute + systemic / in life observation / …): 5.2 mg/kg/day
LEL [1, 12]: 5.2 mg/kg/day
NEL [1, 12]: < 5.2 mg/kg/day
LEL [2, 13]: 164 mg/kg/day
LOAEL [2, 13]: 164 mg/kg/day
NEL [2, 14]: 15 mg/kg/day
NOAEL [2, 14]: 15 mg/kg/day
LEL [3, 15]: 8.1 mg/kg/day
NEL [3, 15]: < 8.1 mg/kg/day
LOAEL ([3]; systemic / pathology microscopic / adrenal gland / vacuolization cytoplasmic): 47.1 mg/kg/day
NOAEL ([3]; systemic / pathology microscopic / adrenal gland / vacuolization cytoplasmic + systemic / clinical chemistry / alanine aminotransferase (alt…): 8.1 mg/kg/day
LEL [4]: 4.33 mg/kg/day
LOAEL [4]: 4.33 mg/kg/day
NEL [4]: 1.38 mg/kg/day
NOAEL [4]: 1.38 mg/kg/day
LOAEL [5, 16]: 610 mg/kg/day
NOAEL [5, 16]: 4.1 mg/kg/day
LEL [5, 17]: 5.1 mg/kg/day
NEL [5, 17]: < 5.1 mg/kg/day
LEL [6, 18]: 7.7 mg/kg/day
NEL [6, 18]: < 7.7 mg/kg/day
LOAEL [6, 19]: 8.4 mg/kg/day
NOAEL [6, 19]: < 8.4 mg/kg/day

O=C(NC(=O)c1c(F)cccc1F)Nc1cc(Cl)c(F)c(Cl)c1F [Teflubenzuron]
LEL [7]: 81.6 mg/kg/day
LOAEL [7]: 81.6 mg/kg/day
NEL [7]: 8 mg/kg/day
NOAEL [7]: 8 mg/kg/day
LOAEL [8, 20]: 26 mg/kg/day
NOAEL [8, 20]: 5.1 mg/kg/day
LEL [8, 21]: 1.3 mg/kg/day
NEL [8, 21]: < 1.3 mg/kg/day

O=C([O-])C(Cl)(Cl)Cl.[Na+] [Sodium trichloroacetate]
LOAEL [9, 22]: > 355 mg/kg/day
NOAEL [9, 22]: ≥ 355 mg/kg/day
LEL [9, 23]: 4.1 mg/kg/day
NEL [9, 23]: < 4.1 mg/kg/day
LOAEL [10, 24]: > 267 mg/kg/day
NOAEL [10, 24]: ≥ 267 mg/kg/day
LEL [10, 25]: 133 mg/kg/day
NEL [10, 25]: < 133 mg/kg/day
